We go through 5 compounds from paper PMC7170901, “Design and efficient synthesis of pyrazoline and isoxazole bridged indole C-glycoside hybrids as potential anticancer agents” (Scientific Reports, 2020).

Assay type in all cases: cell-based
Series [1] relates to MDA-MB-231 (human breast cancer) cell line. The series can be described thus: MTT cell viability assay in MDA-MB-231 cells. The following applies: Homo sapiens; for viability at 10 µM / viability at 25 µM / viability at 50 µM: MDA-MB-231, 72 h, 72 h, MTT, read-out: Cell Viability (%) ± SD; for viability at 10 µM: MDA-MB-231, 10 µM; for viability at 25 µM: MDA-MB-231, 25 µM; for viability at 50 µM: MDA-MB-231, 50 µM; for IC50: MDA-MB-231, MTT, treated for 48 h, 1, 5, 10, 25 and 50 µM. As to the method:
IC50 values were determined by plotting values of percent cell viability against concentration of each of these compounds. […] The experiments were performed in triplicates, n = 3 and ± SE value was calculated for each data point.
The human breast cancer cell line MDA-MB-231 were cultured in Dulbecco’s Modified Eagle’s Medium (DMEM) (Gibco, St. Louis, USA) supplemented with 10% heat inactivated FBS (Fetal Bovine Serum, Gibco, USA) and 1% penicillin-streptomycin (Gibco Canada) in humidified CO2 incubator at 37 °C. The cells were maintained as a monolayer in 100 mm culture plate. The cells used for each experiment were of less than 8 passage number. Sub culturing of cells was performed every third day, followed by trypsin EDTA treatment.
Cell viability assay was performed as per standard protocols. […] Ltd, India). In brief, this is a homogeneous, colorimetric method for determining the number of viable cells in proliferation, cytotoxicity or chemosensitivity assays. MTT is bio reduced by cells into a formazan product that is soluble in the tissue culture medium. […] The absorbance of the formazan product at 595 nm was measured directly from 96-well assay plates without additional processing using a multimode plate reader (Bio-Rad) (iMark, India), as absorbance is directly proportional to the number of viable cells in culture. The percentage of viable cells in each group is determined with respect to the untreated control cells.

The next series deals with MDA-MB-453 cells. Description: MTT cell viability assay in MDA-MB-453 cells. The note with it: Homo sapiens, read-out: Cell Viability (%) ± SD; for viability at 1 µM: MDA-MB-453, 1 µM; for viability at 10 µM: MDA-MB-453, 10 µM; for viability at 25 µM: MDA-MB-453, 25 µM. The source says:
(§1) MDA-MB-231 represents a specific subtype, known as the triple negative breast cancer (TNBC). […] We also included normal mammary epithelial MCF-10A cells in our experiments to confirm if the growth-inhibitory activities of the selected compounds are truly cancer cell-specific. […] Furthermore, none of these compounds did have any growth inhibitory activity against normal breast epithelial cell (MCF-10A). The IC50 values for these compounds against MDA-MB-231 cells (Fig. 2) are also included in Table 4 for comparison. Cell viability assay was performed as per standard protocols. After 72 h of cell incubation in the presence or absence of each compound, cell viability was evaluated by using MTT ((3-(4,5-dimethylthiazol-2-yl)-2,5-diphenyltetrazolium bromide)) (Himedia Pvt. Ltd, India). In brief, this is a homogeneous, colorimetric method for determining the number of viable cells in proliferation, cytotoxicity or chemosensitivity assays. MTT is bio reduced by cells into a formazan product that is […]. After 72 h of compound treatment, the medium was removed and 100 μL of MTT (0.5 mg ml^−1 in media) was added to the cells and kept in the dark for 3 h at 37 °C in the CO2 incubator and the formazan formed was dissolved in 100 μL DMSO (Dimethyl Sulfoxide). The absorbance of the formazan product at 595 nm was measured directly from 96-well assay plates without additional processing using a multimode plate reader (Bio-Rad) (iMark, India), as absorbance is directly proportional to the number of viable cells in culture. The percentage of viable cells in each group is determined with respect to the untreated control cells.

Series [2] in a line: MTT cell viability assay in normal MCF-10A cells. The note with it: human, MCF-10A normal mammary epithelial cells, read-out: Cell Viability (%) ± SD.
From the text: as §1

Turning to `O=C(/C=C/c1c[nH]c2ccccc12)C[C@@H]1O[C@H](CO)[C@@H](O)[C@H](O)[C@H]1O` [Compound 9, (E)-4-(1H-indol-3-yl)-1-((2S,3R,4R,5S,6R)-3,4,5-trihydroxy-6-(hydroxymethyl)tetrahydro-2H-pyran-2-yl)but-3-en-2-one], in series [1], the viability at 10 µM was 71.1 ± 10.5%, the viability at 25 µM came out at 54 ± 11.2%, the viability at 50 µM was 36.3 ± 4.29% and the IC50 amounted to 30.6 µM. In addition, in the series on MDA-MB-453 cells, the viability at 1 µM came out at 80.6 ± 8%, the viability at 10 µM stood at 76.4 ± 5.4% and the viability at 25 µM turned out to be 96.1 ± 35.7%. In series [2], the viability at 72 h, 25 µM came to 87.6 ± 1.5%; the viability at 72 h, 50 µM was determined as 81.3 ± 2.9%; the viability at 72 h, 100 µM stood at 84.2 ± 3%.

As to `O=C(/C=C/c1c[nH]c2ccc(Cl)cc12)C[C@@H]1O[C@H](CO)[C@@H](O)[C@H](O)[C@@H]1O` [Compound 20, (E)-4-(5-chloro-1H-indol-3-yl)-1-((2S,3S,4R,5S,6R)-3,4,5-trihydroxy-6-(hydroxymethyl)tetrahydro-2H-pyran-2-yl)but-3-en-2-one], in series [1], the viability at 10 µM is 56.7 ± 23.2%, the viability at 25 µM came out at 54.3 ± 16.3% and the viability at 50 µM turned out to be 62 ± 4.91%. Moreover, in the series on MDA-MB-453 cells, the viability at 1 µM was 105 ± 8.1%, the viability at 10 µM is 74.8 ± 1.5% and the viability at 25 µM worked out at 66.4 ± 3.2%. Besides, in series [2], the viability at 72 h, 25 µM was determined as 85.8 ± 5.3%; the viability at 72 h, 50 µM was determined as 78.8 ± 3%; the viability at 72 h, 100 µM was 36.5 ± 3.4%.

`OC[C@H]1O[C@@H](CC2=NNC(c3c[nH]c4ccccc34)C2)[C@H](O)[C@@H](O)[C@H]1O` (stereo partly drawn) [Compound 25, (2 S,3 R,4 R,5 R,6 R)-2-((5-(1H-indol-3-yl)-4,5-dihydro-1H-pyrazol-3-yl)methyl)-6-(hydroxy-methyl)tetrahydro-2H-pyran-3,4,5-triol]: in series [1], the viability at 10 µM turned out to be 97.6 ± 3.36%, the viability at 25 µM was 54.2 ± 7.06%, the viability at 50 µM turned out to be 43.8 ± 13% and the IC50 stood at 35.5 µM. Besides, in the series on MDA-MB-453 cells, the viability at 1 µM worked out at 88.8 ± 5.2%, the viability at 10 µM is 78.3 ± 4.7% and the viability at 25 µM amounted to 69.6 ± 5.3%. Also, in series [2], the viability at 72 h, 25 µM was found to be 87.6 ± 2.2%; the viability at 72 h, 50 µM is 84.6 ± 1.7%; the viability at 72 h, 100 µM was determined as 82.4 ± 2.6%.

As for `O=[N+]([O-])c1ccc2[nH]cc(-c3cc(C[C@@H]4O[C@H](CO)[C@@H](O)[C@H](O)[C@H]4O)no3)c2c1` [Compound 34, (2 R,3 S,4 R,5 R,6 S)-2-(hydroxymethyl)-6-((5-(5-nitro-1H-indol-3-yl)isoxazol-3-yl)methyl) tetrahydro-2H-pyran-3,4,5-triol], in series [1], the viability at 10 µM is 68.4 ± 5.36%, the viability at 25 µM was determined as 46.1 ± 3.32%, the viability at 50 µM stood at 43.4 ± 0.26% and half-maximal inhibition (IC50) required 22.3 µM. Further, in the series with MDA-MB-453 cells, the viability at 1 µM was found to be 92.5 ± 4.6%, the viability at 10 µM was found to be 80.9 ± 1.2% and the viability at 25 µM worked out at 66.8 ± 1.7%. In series [2], the viability at 72 h, 25 µM worked out at 87.6 ± 1.5%; the viability at 72 h, 50 µM came to 80.1 ± 2.8%; the viability at 72 h, 100 µM is 84.2 ± 3%.

As to `OC[C@H]1O[C@@H](Cc2cc(-c3c[nH]c4ccccc34)on2)[C@H](O)[C@@H](O)[C@H]1O` [Compound 37, (2 S,3 R,4 R,5 R,6 R)-2-((5-(1H-indol-3-yl)isoxazol-3-yl)methyl)-6-(hydroxymethyl) tetrahydro-2H-pyran-3,4,5-triol], in series [1], the viability at 10 µM was 74.8 ± 10.7%, the viability at 25 µM amounted to 76.4 ± 10.4% and the viability at 50 µM came out at 64.4 ± 7.77%. Besides, in the series on MDA-MB-453 cells, the viability at 1 µM is 95.4 ± 4.8%, the viability at 10 µM is 76.4 ± 5.4% and the viability at 25 µM worked out at 96.1 ± 35.7%. Also, in series [2], the viability at 72 h, 25 µM stood at 86.8 ± 2.8%; the viability at 72 h, 50 µM came out at 83.2 ± 5.8%; the viability at 72 h, 100 µM was found to be 81 ± 1.5%.
